Experimental data reported in ChEMBL document CHEMBL5042489, “Inhibitors of the Hippo Pathway Kinases STK3/MST2 and STK4/MST1 Have Utility for the Treatment of Acute Myeloid Leukemia” (J Med Chem, 2022).
Activity calls are given as the source filed them. The rule behind the calls is not given here.

T1: Serine/threonine-protein kinase 3 (Homo sapiens, UniProt Q13188)
T1 sequence (Q13188 whole entry): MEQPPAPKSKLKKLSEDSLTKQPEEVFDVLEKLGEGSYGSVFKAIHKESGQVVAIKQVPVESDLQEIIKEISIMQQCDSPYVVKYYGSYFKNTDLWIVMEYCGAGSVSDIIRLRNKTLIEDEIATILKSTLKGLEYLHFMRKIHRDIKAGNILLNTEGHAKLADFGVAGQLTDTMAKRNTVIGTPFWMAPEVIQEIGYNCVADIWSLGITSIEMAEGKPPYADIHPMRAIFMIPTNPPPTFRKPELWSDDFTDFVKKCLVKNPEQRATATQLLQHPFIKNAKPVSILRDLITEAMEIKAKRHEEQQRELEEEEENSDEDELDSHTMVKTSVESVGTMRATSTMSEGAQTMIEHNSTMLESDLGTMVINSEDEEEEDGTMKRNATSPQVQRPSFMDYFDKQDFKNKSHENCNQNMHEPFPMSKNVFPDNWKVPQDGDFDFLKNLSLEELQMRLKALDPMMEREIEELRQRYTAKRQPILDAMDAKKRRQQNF

T2: Serine/threonine-protein kinase 3 (Homo sapiens) (UniProt Q13188)
T2 sequence (whole entry): T1 sequence (Q13188 whole entry)

T3: Serine/threonine-protein kinase 4 (Homo sapiens, UniProt Q13043)
T3 sequence (Q13043 whole entry): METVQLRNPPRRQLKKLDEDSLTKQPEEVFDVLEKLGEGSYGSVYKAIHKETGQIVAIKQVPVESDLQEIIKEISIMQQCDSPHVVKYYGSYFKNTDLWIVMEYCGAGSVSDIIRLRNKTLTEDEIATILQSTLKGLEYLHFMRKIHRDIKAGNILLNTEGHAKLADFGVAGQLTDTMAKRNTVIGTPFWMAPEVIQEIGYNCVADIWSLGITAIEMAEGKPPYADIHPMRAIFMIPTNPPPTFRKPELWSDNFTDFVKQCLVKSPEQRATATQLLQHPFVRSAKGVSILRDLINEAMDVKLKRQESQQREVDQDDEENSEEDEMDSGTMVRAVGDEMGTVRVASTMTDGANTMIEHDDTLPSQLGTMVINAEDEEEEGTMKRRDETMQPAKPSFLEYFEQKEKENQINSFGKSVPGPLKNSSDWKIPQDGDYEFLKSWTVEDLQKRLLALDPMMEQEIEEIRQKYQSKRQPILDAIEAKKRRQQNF

T4: Serine/threonine-protein kinase 4 (Homo sapiens) (UniProt Q13043)
T4 sequence (whole entry): T3 sequence (Q13043 whole entry)

B1: Serine/threonine-protein kinase 4 (Homo sapiens), Q13043 (protein)
chain: T3 sequence (Q13043 whole entry)

Assays:
[1] = biological target: T1, Serine/threonine-protein kinase 3
[2] = biological target: T1, Serine/threonine-protein kinase 3; remark: listed apart in the source
Description: Displacement of K5 tracer from full length C-terminal NanoLuc fused human STK3 expressed in HEK293T cells incubated for 2 hrs by NanoBRET assay

[3] = biological target: T2, Serine/threonine-protein kinase 3 (Homo sapiens); assay: Inhibition of recombinant N-terminal His6-tagged human STK3 (18 to 311 residues) expressed in Escherichia coli assessed as melting temperature at 20 uM by thermal shift assay
[4] = Drug concentration in C57BL/6 mouse plasma at 20 mg/kg, ip measured after 30 mins by LC-MS/MS analysis; type: ADME, organism-based
[5] = biological target: Leucine-rich repeat serine/threonine-protein kinase 2 (Homo sapiens, UniProt Q5S007); assay: Displacement of K5 tracer from full length C-terminal NanoLuc fused human LRRK2 expressed in HEK293T cells incubated for 2 hrs by NanoBRET assay; type: cell-based
[6] = biological target: T2, Serine/threonine-protein kinase 3 (Homo sapiens); assay: Inhibition of STK3 in HEK293 cells assessed as increase in YAP/TAZ-TEAD activity at 10 uM incubated for 48 hrs by Dual-Glo luciferase assay; type: cell-based
[7] = biological target: T3, Serine/threonine-protein kinase 4
[8] = biological target: T3, Serine/threonine-protein kinase 4; remark: listed apart in the source
Description: Displacement of K5 tracer from full length C-terminal NanoLuc fused human STK4 expressed in HEK293T cells incubated for 2 hrs by NanoBRET assay

[9] = biological target: T3, Serine/threonine-protein kinase 4; assay: Binding affinity to recombinant N-terminal His6-tagged human STK4 (43 to 431 residues) expressed in Escherichia coli assessed as dissociation constant by isothermal titration calorimetry
[10] = biological target: T4, Serine/threonine-protein kinase 4 (Homo sapiens); details: dose 20.0 µM
Description: Inhibition of recombinant N-terminal His6-tagged human STK4 (43 to 431 residues) expressed in Escherichia coli assessed as melting temperature at 20 uM by thermal shift assay (Rvb = 55 degreeC)

[11] = biological target: T3, Serine/threonine-protein kinase 4; remark: listed apart in the source
[12] = biological target: T1, Serine/threonine-protein kinase 3; assay: Binding affinity to recombinant N-terminal His6-tagged human STK3 (18 to 311 residues) expressed in Escherichia coli assessed as dissociation constant by isothermal titration calorimetry
[13] = substrate: Clc1cccc(-c2c[nH]c3ncnc(N4CCOCC4)c23)c1; details: Homo sapiens; time 165.0 min

Sequence of Leucine-rich repeat serine/threonine-protein kinase 2 (Q5S007 whole entry, the tested form may be a part): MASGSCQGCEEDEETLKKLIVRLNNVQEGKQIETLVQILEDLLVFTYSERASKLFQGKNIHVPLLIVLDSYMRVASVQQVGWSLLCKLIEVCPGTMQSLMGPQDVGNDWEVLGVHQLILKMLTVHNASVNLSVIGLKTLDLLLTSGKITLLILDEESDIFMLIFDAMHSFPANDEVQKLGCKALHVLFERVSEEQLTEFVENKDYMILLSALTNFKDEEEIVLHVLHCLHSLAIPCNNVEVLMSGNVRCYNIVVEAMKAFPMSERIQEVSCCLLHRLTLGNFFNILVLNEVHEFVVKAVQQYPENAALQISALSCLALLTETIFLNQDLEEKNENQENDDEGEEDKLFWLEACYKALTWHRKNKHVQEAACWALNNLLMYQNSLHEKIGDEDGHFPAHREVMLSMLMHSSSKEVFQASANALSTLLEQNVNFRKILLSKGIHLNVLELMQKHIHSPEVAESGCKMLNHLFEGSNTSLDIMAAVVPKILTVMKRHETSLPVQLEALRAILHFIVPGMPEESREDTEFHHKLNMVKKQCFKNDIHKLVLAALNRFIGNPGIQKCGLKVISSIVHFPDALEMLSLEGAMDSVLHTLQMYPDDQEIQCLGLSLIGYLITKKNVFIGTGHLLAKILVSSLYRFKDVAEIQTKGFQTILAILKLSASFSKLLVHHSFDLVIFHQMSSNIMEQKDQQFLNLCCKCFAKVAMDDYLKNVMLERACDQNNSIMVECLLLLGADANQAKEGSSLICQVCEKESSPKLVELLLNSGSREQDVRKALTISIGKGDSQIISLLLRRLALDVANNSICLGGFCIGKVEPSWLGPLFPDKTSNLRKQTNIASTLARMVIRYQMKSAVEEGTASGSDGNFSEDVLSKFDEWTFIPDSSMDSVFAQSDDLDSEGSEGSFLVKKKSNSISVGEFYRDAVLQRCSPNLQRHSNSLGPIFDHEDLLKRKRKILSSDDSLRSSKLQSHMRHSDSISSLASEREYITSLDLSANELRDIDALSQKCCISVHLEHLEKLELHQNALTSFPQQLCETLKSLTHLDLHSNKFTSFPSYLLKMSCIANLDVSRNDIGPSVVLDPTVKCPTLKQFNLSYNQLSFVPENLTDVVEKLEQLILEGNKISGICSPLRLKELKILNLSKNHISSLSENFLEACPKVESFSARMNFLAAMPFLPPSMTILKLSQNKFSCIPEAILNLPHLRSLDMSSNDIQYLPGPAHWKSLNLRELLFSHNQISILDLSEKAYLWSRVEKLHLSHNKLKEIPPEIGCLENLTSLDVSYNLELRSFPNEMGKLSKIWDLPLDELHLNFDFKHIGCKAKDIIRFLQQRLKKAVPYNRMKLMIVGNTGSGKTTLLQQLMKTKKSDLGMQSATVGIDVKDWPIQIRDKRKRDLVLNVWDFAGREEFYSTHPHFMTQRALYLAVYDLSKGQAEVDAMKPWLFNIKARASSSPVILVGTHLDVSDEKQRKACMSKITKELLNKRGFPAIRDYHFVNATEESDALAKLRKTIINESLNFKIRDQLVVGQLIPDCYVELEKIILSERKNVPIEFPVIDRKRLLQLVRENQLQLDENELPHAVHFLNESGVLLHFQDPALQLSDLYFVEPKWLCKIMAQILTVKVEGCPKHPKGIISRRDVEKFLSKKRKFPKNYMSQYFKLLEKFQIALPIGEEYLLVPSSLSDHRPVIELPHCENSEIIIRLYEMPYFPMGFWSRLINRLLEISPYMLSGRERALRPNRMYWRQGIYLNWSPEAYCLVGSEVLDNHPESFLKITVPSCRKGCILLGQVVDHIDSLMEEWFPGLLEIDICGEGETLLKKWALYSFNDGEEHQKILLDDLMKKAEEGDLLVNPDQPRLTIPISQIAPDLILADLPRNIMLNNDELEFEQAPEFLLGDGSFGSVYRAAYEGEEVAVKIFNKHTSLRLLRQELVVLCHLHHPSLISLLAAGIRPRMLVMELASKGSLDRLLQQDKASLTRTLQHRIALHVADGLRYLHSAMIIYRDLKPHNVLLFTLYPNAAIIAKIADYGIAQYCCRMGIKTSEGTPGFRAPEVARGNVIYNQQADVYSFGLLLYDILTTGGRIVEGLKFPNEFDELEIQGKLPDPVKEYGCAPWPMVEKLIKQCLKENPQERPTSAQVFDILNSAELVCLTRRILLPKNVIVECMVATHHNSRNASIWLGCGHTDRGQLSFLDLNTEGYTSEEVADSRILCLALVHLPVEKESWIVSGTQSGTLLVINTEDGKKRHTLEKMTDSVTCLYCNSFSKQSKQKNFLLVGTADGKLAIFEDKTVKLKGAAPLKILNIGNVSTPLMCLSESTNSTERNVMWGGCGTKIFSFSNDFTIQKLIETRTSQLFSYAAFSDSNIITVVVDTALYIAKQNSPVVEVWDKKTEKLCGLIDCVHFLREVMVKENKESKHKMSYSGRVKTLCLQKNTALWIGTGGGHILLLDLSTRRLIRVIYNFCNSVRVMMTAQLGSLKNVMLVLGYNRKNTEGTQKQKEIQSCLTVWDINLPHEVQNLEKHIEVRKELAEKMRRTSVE

Molecule	IC50 [1]	concentration at 0.5 h [4]	IC50 [5]	also measured
CCN(CCO)c1ncnc2[nH]cc(-c3cccc(Cl)c3)c12	226 nM	–	–	–
Fc1cccc(-c2c[nH]c3ncnc(N4CCOCC4)c23)c1	191 nM	> 1400 nM	246 nM	IC50 [2]: 373 nM; ΔTm [3]: > 5.2 °C; inhibition [6]: Active
Clc1cccc(-c2c[nH]c3ncnc(N4CCCCC4)c23)c1	167 nM	> 1400 nM	1140 nM	IC50 [2]: 1100 nM; ΔTm [3]: > 5.2 °C
Clc1cccc(-c2n[nH]c3ncnc(N4CCOCC4)c23)c1	4800 nM	–	–	IC50 [7]: 1610 nM
CN(CCO)c1ncnc2[nH]cc(-c3cccc(Cl)c3)c12	117 nM	> 1400 nM	1520 nM	IC50 [2]: 631 nM; IC50 [8]: 406 nM; IC50 [7]: 79 nM
Clc1cccc(-c2c[nH]c3ncnc(N4CCOCC4)c23)c1	–	> 1400 nM	264 nM	Kd [9]: 147 nM; Tm [10]: 63.8 °C; Ki [11]: 50 nM; IC50 [8]: 320 nM; IC50 [7]: 35 nM
Fc1ccccc1-c1c[nH]c2ncnc(N3CCOCC3)c12	558 nM	–	–	–
CNC1CCN(c2ncnc3[nH]cc(-c4cccc(Cl)c4)c23)CC1	–	> 1400 nM	3540 nM	–
Cc1ccc(-c2c[nH]c3ncnc(N4CCOCC4)c23)cc1	2020 nM	–	–	inhibition [6]: inactive
Clc1cccc(-c2csc3ncnc(N4CCOCC4)c23)c1	> 10000 nM	–	–	–
CC1(O)CCN(c2ncnc3[nH]cc(-c4cccc(Cl)c4)c23)CC1	189 nM	–	–	–
OCCCNc1ncnc2[nH]cc(-c3cccc(Cl)c3)c12	173 nM	> 1400 nM	2490 nM	IC50 [2]: 668 nM
COc1ccccc1-c1c[nH]c2ncnc(N3CCOCC3)c12	230 nM	–	–	–
Cc1ccccc1-c1c[nH]c2ncnc(N3CCOCC3)c12	6900 nM	–	–	inhibition [6]: inactive; IC50 [7]: 2400 nM
N#Cc1cccc(-c2c[nH]c3ncnc(N4CCOCC4)c23)c1	–	–	84 nM	IC50 [2]: 197 nM
Clc1cccc(-c2c[nH]c3nccc(N4CCOCC4)c23)c1	119 nM	> 1400 nM	121 nM	IC50 [2]: 373 nM; Kd [12]: 48 nM; Kd [9]: 158 nM; Tm [10]: 63.6 °C; IC50 [8]: 192 nM; inhibition [6]: Active; IC50 [7]: 66 nM

Molecule	IC50 [1]	concentration at 0.5 h [4]	IC50 [5]	also measured
Fc1ccc(-c2c[nH]c3ncnc(N4CCOCC4)c23)cc1	766 nM	> 1400 nM	–	–
Clc1cccc(-c2coc3ncnc(N4CCOCC4)c23)c1	> 10000 nM	–	–	–
CN(C)c1ncnc2[nH]cc(-c3cccc(Cl)c3)c12	349 nM	–	–	–
Cc1cccc(-c2c[nH]c3ncnc(N4CCOCC4)c23)c1	121 nM	> 1400 nM	127 nM	IC50 [2]: 434 nM
Clc1cccc(-c2c[nH]c3ncnc(NCC4CC4)c23)c1	213 nM	–	–	–
c1coc(-c2c[nH]c3ncnc(N4CCOCC4)c23)c1	487 nM	–	–	–
Clc1cccc(-c2c[nH]c3ccnc(N4CCOCC4)c23)c1	> 10000 nM	–	–	–
c1csc(-c2c[nH]c3ncnc(N4CCOCC4)c23)c1	267 nM	–	–	–
COc1cccc(-c2c[nH]c3ncnc(N4CCOCC4)c23)c1	766 nM	–	–	–
CN1C(=O)c2sccc2N(C)c2nc(Nc3ccc(S(N)(=O)=O)cc3)ncc21	–	–	–	IC50 [8]: 1040 nM
c1ccc(-c2c[nH]c3ncnc(N4CCOCC4)c23)cc1	197 nM	–	–	IC50 [7]: 183 nM
CC(CO)CN(C)c1ncnc2[nH]cc(-c3cccc(Cl)c3)c12 (stereo not given)	58 nM	> 1400 nM	7140 nM	IC50 [2]: 289 nM; IC50 [8]: 444 nM; IC50 [7]: 38 nM
CC1(N)CCN(c2ncnc3[nH]cc(-c4cccc(Cl)c4)c23)CC1	278 nM	> 1400 nM	–	–
c1nc(N2CCOCC2)c2c(-c3ccoc3)c[nH]c2n1	986 nM	–	–	–
B1	–	–	–	Km [13]: 140 µM
